17 molecules from patent US20240166639A1, “POTENT AND SELECTIVE COMPOUNDS AS SEROTONIN 1B RECEPTOR MODULATORS” (LEUKOS BIOTECH, S.L., priority 2020, published 2024) can be followed below.

One experiment concerns MonoMac-1. Put plainly: Cell viability assay, AML cell line MonoMac-1. The conditions noted are these: 48 h treatment, live cells by flow cytometry. Type of experiment: cell-based. The method, then:
(§1) 0.15×10^6 AML cell lines (HL-60 or MonoMac-1) per mL were cultured in completed RPMI medium, supplemented with 10% Fetal bovine serum (FBS). Compounds were added to the medium at the concentration indicated (0.1, 1 and 10 μM), while controls were treated with equivalent concentration of vehicle (DMSO). Primary validation screenings were analyzed after 72 h of treatment, EC50 was determined upon 48 h treatments. Cells were stained with the live-dead discrimination dye 7-aminoactinomycin D (7-AAD) and Hoechst 33342 and acquired in a flow cytometer, with a volumetric counting. Live cells were discriminated based on a discrete FSC-SSC profile, 7-AAD negativity and dim positivity to Hoechst 33342. EC50 was calculated with the Prism GraphPad software.

The test system of a further experiment is HL-60. Put plainly: Cell viability assay, AML cell line HL-60. The conditions noted are these: 48 h treatment, live cells by flow cytometry. Format: cell-based. The protocol: as §1
For orientation: In flow cytometry, cells or beads pass a laser one at a time.

For `Cc1nc(-c2ccc(-c3ccc(C(=O)Nc4ccc(C#N)c(OCCN(C)C)c4)cn3)c(Cl)c2)no1` [Example 9, 6-(2-chloro-4-(5-methyl-1,2,4-oxadiazol-3-yl)phenyl)-N-(4-cyano-3-(2-(dimethylamino)ethoxy)phenyl)nicotinamide], the half-maximal effective concentration (EC50) (in general, the concentration giving half of the maximal effect) with MonoMac-1 (Mono-Mac-1) stood at 880 nM; in the experiment with HL-60 (Homo sapiens, HL-60), 990 nM.

Turning to `Cc1nc(-c2ccc(-c3ccc(C(=O)Nc4ccc(C#N)c(OCCN(C)C)c4)cn3)c(F)c2)no1` [Example 8, N-(4-cyano-3-(2-(dimethylamino)ethoxy)phenyl)-6-(2-fluoro-4-(5-methyl-1,2,4-oxadiazol-3-yl)phenyl)nicotinamide], the EC50 with MonoMac-1 (Mono-Mac-1) was found to be 2000 nM; in the experiment with HL-60 (Homo sapiens, HL-60), 2810 nM.

On to `Cc1nc(-c2ccc(-c3ccc(NC(=O)c4ccc(C#N)c(OCCN(C)C)c4)cn3)c(Cl)c2)no1` [Example 73, N-(6-(2-chloro-4-(5-methyl-1,2,4-oxadiazol-3-yl)phenyl)pyridin-3-yl)-4-cyano-3-(2-(dimethylamino)ethoxy)benzamide], for which the EC50 with MonoMac-1 (Mono-Mac-1) is 3080 nM; in the experiment on HL-60 (Homo sapiens, HL-60), 1530 nM.

On to `Cc1nc(-c2ccc(-c3ccc(C(=O)Nc4ccc(Br)c(OCCN(C)C)n4)cn3)c(Cl)c2)no1` [Example 53, N-(5-bromo-6-(2-(dimethylamino)ethoxy)pyridin-2-yl)-6-(2-chloro-4-(5-methyl-1,2,4-oxadiazol-3-yl)phenyl)nicotinamide], for which the concentration for a half-maximal effect (EC50) with MonoMac-1 (Mono-Mac-1) worked out at 1320 nM; in the experiment with HL-60 (Homo sapiens, HL-60), 600 nM.

On to `Cc1nc(-c2ccc(-c3ccc(C(=O)Nc4ccc(Br)c(OCCN(C)C)c4)cn3)c(F)c2)no1` [Example 2, N-(4-bromo-3-(2-(dimethylamino)ethoxy)phenyl)-6-(2-fluoro-4-(5-methyl-1,2,4-oxadiazol-3-yl)phenyl)nicotinamide], for which the concentration for a half-maximal effect (EC50) in the experiment with MonoMac-1 (Mono-Mac-1) worked out at 1110 nM; in the experiment on HL-60 (Homo sapiens, HL-60), 580 nM.

`Cc1nc(-c2ccc(-c3ccc(C(=O)Nc4ccc(Br)c(OCCN(C)C)n4)cn3)c(F)c2)no1` [Example 52, N-(5-bromo-6-(2-(dimethylamino)ethoxy)pyridin-2-yl)-6-(2-fluoro-4-(5-methyl-1,2,4-oxadiazol-3-yl)phenyl)nicotinamide]: the EC50 with MonoMac-1 (Mono-Mac-1) was 4320 nM; in the experiment on HL-60 (Homo sapiens, HL-60) it was 1030 nM.

Take `Cc1nc(-c2ccc(-c3ccc(C(=O)Nc4cc(OCCN(C)C)c(Br)cn4)cc3)c(F)c2)no1` [Example 16, N-(5-bromo-4-(2-(dimethylamino)ethoxy)pyridin-2-yl)-2′-fluoro-4′-(5-methyl-1,2,4-oxadiazol-3-yl)-[1,1′-biphenyl]-4-carboxamide]: the EC50 was determined as 460 nM with MonoMac-1 (Mono-Mac-1) and 1080 nM in the experiment with HL-60 (Homo sapiens, HL-60).

For `Cc1nc(-c2ccc(-c3ccc(C(=O)Nc4cc(OCCN(C)C)c(Br)cn4)cc3)c(C(F)(F)F)c2)no1` [Example 18, N-(5-bromo-4-(2-(dimethylamino)ethoxy)pyridin-2-yl)-4′-(5-methyl-1,2,4-oxadiazol-3-yl)-2′-(trifluoromethyl)-[1,1′-biphenyl]-4-carboxamide], the EC50 in the experiment on MonoMac-1 (Mono-Mac-1) came to 420 nM; in the experiment on HL-60 (Homo sapiens, HL-60), 1170 nM.

For `Cc1nc(-c2ccc(-c3ccc(C(=O)Nc4cc(OCCN(C)C)c(Br)cn4)cc3)c(Cl)c2)no1` [Example 17, N-(5-bromo-4-(2-(dimethylamino)ethoxy)pyridin-2-yl)-2′-chloro-4′-(5-methyl-1,2,4-oxadiazol-3-yl)-[1,1′-biphenyl]-4-carboxamide], the EC50 stood at 1320 nM in the experiment with MonoMac-1 (Mono-Mac-1) and 2650 nM in the experiment with HL-60 (Homo sapiens, HL-60).

For the molecule `Cc1nc(-c2ccc(-c3ccc(C(=O)Nc4ccc(Br)c(OCCN(C)C)c4)cn3)c(C3CC3)c2)no1` [Example 1, N-(4-bromo-3-(2-(dimethylamino)ethoxy)phenyl)-6-(2-cyclopropyl-4-(5-methyl-1,2,4-oxadiazol-3-yl)phenyl)nicotinamide], the concentration giving a half-maximal response (EC50) in the experiment with MonoMac-1 (Mono-Mac-1) was found to be 790 nM; in the experiment with HL-60 (Homo sapiens, HL-60), 1000 nM.

On to `Cc1nc(-c2ccc(-c3ccc(C(=O)Nc4ncc(Br)c(OCCN(C)C)n4)cn3)c(F)c2)no1` [Example 58, N-(5-bromo-4-(2-(dimethylamino)ethoxy)pyrimidin-2-yl)-6-(2-fluoro-4-(5-methyl-1,2,4-oxadiazol-3-yl)phenyl)nicotinamide], for which the EC50 turned out to be 2610 nM with MonoMac-1 (Mono-Mac-1) and 3790 nM in the experiment on HL-60 (Homo sapiens, HL-60).

In the case of `Cc1nc(-c2ccc(-c3ccc(C(=O)Nc4ccc(C#N)c(OCCN(C)C)n4)cn3)c(Cl)c2)no1` [Example 56, 6-(2-chloro-4-(5-methyl-1,2,4-oxadiazol-3-yl)pheny)-N-(5-cyano-6-(2-(dimethylamino)ethoxy)pyridin-2-yl)nicotinamide], the figures for the half-maximal effective concentration (EC50) in the experiment with MonoMac-1 and in the experiment with HL-60 were 2020 nM and 620 nM, respectively.

For `Cc1nc(-c2ccc(-c3ccc(C(=O)Nc4ccc(Br)c(OCCN(C)C)n4)cn3)c(C3CC3)c2)no1` [Example 51, N-(5-bromo-6-(2-(dimethylamino)ethoxy)pyridin-2-yl)-6-(2-cyclopropyl-4-(5-methyl-1,2,4-oxadiazol-3-yl)phenyl)nicotinamide], the concentration for a half-maximal effect (EC50) is 1200 nM with MonoMac-1 (Mono-Mac-1) and 1990 nM in the experiment with HL-60 (Homo sapiens, HL-60).

Consider `COc1cc(-c2noc(C)n2)ccc1-c1ccc(C(=O)Nc2cc(OCCN(C)C)c(C#N)cn2)cc1` [Example 25, N-(5-cyano-4-(2-(dimethylamino)ethoxy)pyridin-2-yl)-2′-methoxy-4′-(5-methyl-1,2,4-oxadiazol-3-yl)-[1,1′-biphenyl]-4-carboxamide], for which the concentration for a half-maximal effect (EC50) in the experiment on MonoMac-1 (Mono-Mac-1) was determined as 2690 nM; in the experiment with HL-60 (Homo sapiens, HL-60), 2800 nM.

Take `Cc1nc(-c2ccc(-c3ccc(C(=O)Nc4ccc(Br)c(OCCN(C)C)c4)cn3)c(Cl)c2)no1` [Example 3, N-(4-bromo-3-(2-(dimethylamino)ethoxy)phenyl)-6-(2-chloro-4-(5-methyl-1,2,4-oxadiazol-3-yl)phenyl)nicotinamide]: the EC50 with MonoMac-1 (Mono-Mac-1) is 870 nM; in the experiment on HL-60 (Homo sapiens, HL-60), 1620 nM.

`COc1cc(-c2noc(C)n2)ccc1-c1ccc(C(=O)Nc2ccc(Br)c(OCCN(C)C)c2)cn1` [Example 5, N-(4-bromo-3-(2-(dimethylamino)ethoxy)phenyl)-6-(2-methoxy-4-(5-methyl-1,2,4-oxadiazol-3-yl)phenyl)nicatinamide]: the results for the concentration for a half-maximal effect (EC50) with MonoMac-1 and in the experiment on HL-60 were 1140 nM and 1180 nM, respectively.

As to `Cc1nc(-c2ccc(-c3ccc(C(=O)Nc4ccc(C#N)c(OCCN(C)C)n4)cc3)c(C3CC3)c2)no1` [Example 30, N-(5-cyano-6-(2-(dimethylamino)ethoxy)pyridin-2-yl)-2′-cyclopropyl-4′-(5-methyl-1,2,4-oxadiazol-3-yl)-[1,1′-biphenyl]-4-carboxamide], the concentration for a half-maximal effect (EC50) is 2800 nM with MonoMac-1 (Mono-Mac-1) and 1030 nM with HL-60 (Homo sapiens, HL-60).
